Measured values from ChEMBL document CHEMBL1153126, “Substituted tetrahydro-beta-carbolines as potential agents for the treatment of human papillomavirus infection” (Bioorg Med Chem Lett, 2010).

How the values were obtained:
[1] = Therapeutic index, CC50 for HFF cells to IC50 for Human papillomavirus - 16; format: cell-based; details: read-out: TI
[2] = Cytotoxicity against HFF cells; format: cell-based; details: human
[3] = test system: Human papillomavirus type 16; assay: Antiviral activity against Human papillomavirus - 16 infected in human W12-20850 cells by hybrid capture method; format: functional, organism-based; details: Human papillomavirus 16, W12-20850
[4] = Clearance in rat at 1 mg/kg, iv; format: ADME, organism-based; design: dose 1 mg/kg, route intravenous; details: in vivo
[5] = Half life in rat at 1 mg/kg, iv; format: ADME, organism-based; design: dose 1 mg/kg, route intravenous; details: in vivo
[6] = Oral bioavailability in mouse at 5 mg/kg; format: ADME, organism-based; details: in vivo

Structure (SMILES)	selectivity ratio [1]	CC50 [2]	IC50 [3]	clearance [4]	half-life [5]	bioavailability [6]
Cc1ccc(C2c3[nH]c4ccccc4c3CCN2C(=O)CCc2ccccc2)cc1 (stereo unspecified)	100	> 100 µM	1300 nM			
Cc1ccc(C2c3[nH]c4ccc(F)cc4c3CCN2C(=O)CCc2ccccc2)cc1 (stereo unspecified)	> 100	> 100 µM	440 nM			
O=C(CCc1ccccc1)N1CCc2c([nH]c3ccccc23)C1c1cccnc1 (stereo unspecified)		> 100 µM	> 100000 nM			
O=C(CCc1ccccc1)N1CCc2c([nH]c3ccccc23)C1COc1ccccc1 (stereo unspecified)		> 100 µM	72000 nM			
Cc1ccc(C2c3[nH]c4ccccc4c3CCN2CC(C)C)cc1 (stereo unspecified)		50 µM	25000 nM			
Cc1ccc([C@H]2c3[nH]c4ccc(Cl)cc4c3CCN2C(=O)CCc2ccccc2)cc1		> 100 µM	23 nM	3.6 mL/min/kg	372 min	73%
COc1ccc(S(=O)(=O)N2CCc3c([nH]c4ccccc34)C2c2ccc(C)cc2)cc1 (stereo unspecified)		> 100 µM	66000 nM			
O=C(CCc1ccccc1)N1CCc2c([nH]c3ccccc23)C1c1ccccc1 (stereo unspecified)		> 100 µM	1200 nM			
Cc1ccc([C@@H]2c3[nH]c4ccc(Cl)cc4c3CCN2C(=O)CCc2ccccc2)cc1		> 100 µM	7700 nM			
O=C(CCc1ccccc1)N1CCc2c([nH]c3ccccc23)C1CN1CCCC1 (stereo unspecified)		16 µM				
Cc1ccc(C2c3[nH]c4ccccc4c3CCN2Cc2ccccc2)cc1 (stereo unspecified)		94 µM	5800 nM			
O=C(OCC1c2[nH]c3ccccc3c2CCN1C(=O)CCc1ccccc1)N1CCCC1 (stereo unspecified)		> 100 µM	> 100000 nM			
O=C(CCc1ccccc1)N1CCc2c([nH]c3ccccc23)C1COCc1ccccc1 (stereo unspecified)		> 100 µM	7300 nM			
CC(C)CC1c2[nH]c3ccccc3c2CCN1C(=O)CCc1ccccc1 (stereo unspecified)		22 µM	330 nM			
O=C(C1c2[nH]c3ccccc3c2CCN1C(=O)CCc1ccccc1)N1CCCC1 (stereo unspecified)		> 100 µM	> 100000 nM			
COc1ccc2c3c([nH]c2c1)C(c1ccc(C)cc1)N(C(=O)CCc1ccccc1)CC3 (stereo unspecified)	> 100	> 100 µM	5800 nM			
CC(C)C[C@H]1c2[nH]c3ccc(Cl)cc3c2CCN1C(=O)CCc1ccccc1		> 100 µM	18 nM			

Structure (SMILES)	selectivity ratio [1]	CC50 [2]	IC50 [3]	clearance [4]	half-life [5]	bioavailability [6]
Cc1ccc(C2c3[nH]c4ccccc4c3CCN2C(=O)CCN(C)C)cc1 (stereo unspecified)		40 µM	15000 nM			
COc1ccc2[nH]c3c(c2c1)CCN(C(=O)CCc1ccccc1)C3c1ccc(C)cc1 (stereo unspecified)	> 100	> 100 µM	570 nM			
Cc1ccc(C2c3[nH]c4ccccc4c3CCN2C(=O)OCc2ccccc2)cc1 (stereo unspecified)		> 100 µM	900 nM			
CC(C)C[C@@H]1c2[nH]c3ccc(Cl)cc3c2CCN1C(=O)CCc1ccccc1		> 100 µM	880 nM			
Cc1ccc(C2c3[nH]c4ccc(Cl)cc4c3CCN2C(=O)CCc2ccccc2)cc1 (stereo unspecified)	> 100	> 100 µM	62 nM			
Cc1ccc(C2c3[nH]c4ccc(C)cc4c3CCN2C(=O)CCc2ccccc2)cc1 (stereo unspecified)	> 100	> 100 µM	350 nM			
Cc1ccc(C2c3[nH]c4ccccc4c3CCN2S(C)(=O)=O)cc1 (stereo unspecified)		> 100 µM	23000 nM			
Cc1ccc(C2c3[nH]c4cc(F)ccc4c3CCN2C(=O)CCc2ccccc2)cc1 (stereo unspecified)	> 100	> 100 µM	1700 nM			
Cc1ccc(C2c3[nH]c4ccccc4c3CCN2C(=O)CCc2cccnc2)cc1 (stereo unspecified)		94 µM	18000 nM			
Cc1ccc(C2c3[nH]c4ccccc4c3CCN2C(=O)/C=C/c2ccccc2)cc1 (stereo unspecified)		> 100 µM	2300 nM			
Cc1ccc(C2c3[nH]c4ccccc4c3CCN2C(=O)Oc2cccc3ccccc23)cc1 (stereo unspecified)		> 100 µM	23000 nM			
Cc1ccc(C2c3[nH]c4c(C)cccc4c3CCN2C(=O)CCc2ccccc2)cc1 (stereo unspecified)	> 100	> 100 µM	2200 nM			
O=C(CCc1ccccc1)N1CCc2c([nH]c3ccccc23)C1CCc1ccccc1 (stereo unspecified)		> 100 µM	2700 nM			
Cc1ccc(C2c3[nH]c4ccccc4c3CCN2C(=O)C#Cc2ccccc2)cc1 (stereo unspecified)		> 100 µM	20000 nM			
COC(=O)C1c2[nH]c3ccccc3c2CCN1C(=O)CCc1ccccc1 (stereo unspecified)		> 100 µM	20000 nM			
COC(=O)N1CCc2c([nH]c3ccccc23)C1c1ccc(C)cc1 (stereo unspecified)		31 µM	1700 nM			
